Each compound was assayed against T1, human Chk1 (GST-Chk1) (Homo sapiens, UniProt O14757) (assay: Chk1 DELFIA kinase assay (2 nM GST-Chk1, 600 μM ATP)). Details: Biotin-GLYRSPSMPEN-amide substrate.
T1 construct: made in house; host or cells: insect cells (baculovirus, Bac-to-Bac)
T1 sequence (O14757 1-476): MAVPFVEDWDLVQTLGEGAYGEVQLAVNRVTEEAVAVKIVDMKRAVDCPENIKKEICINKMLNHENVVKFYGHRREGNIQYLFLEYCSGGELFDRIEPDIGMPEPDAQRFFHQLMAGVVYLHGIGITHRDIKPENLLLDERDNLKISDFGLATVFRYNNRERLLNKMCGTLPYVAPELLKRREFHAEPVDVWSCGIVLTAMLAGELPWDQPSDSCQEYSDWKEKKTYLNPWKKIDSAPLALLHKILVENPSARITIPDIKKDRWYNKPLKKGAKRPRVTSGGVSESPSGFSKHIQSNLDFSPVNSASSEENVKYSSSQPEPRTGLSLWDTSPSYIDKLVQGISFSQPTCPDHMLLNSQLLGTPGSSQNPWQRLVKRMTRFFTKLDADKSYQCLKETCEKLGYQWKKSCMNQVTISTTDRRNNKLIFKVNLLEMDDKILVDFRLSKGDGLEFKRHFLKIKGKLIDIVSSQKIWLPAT
Type: biochemical
Protocol: Recombinant human Chk1 was expressed as a fusion protein with glutathione S-transferase at the amino-terminus (GST-Chk1) using standard baculovirus vectors and (Bac-to-Bac®) insect cell expression system purchased from GIBCO™ Invitrogen. Recombinant protein expressed in insect cells was purified using glutathione sepharose (Amersham Biotech) using standard procedures described by the manufacturer.
Chk1 DELFIA® Kinase Assay:
Assays (25 μL) utilized 2 nM GST-Chk1 containing 10 mM Tris, pH 7.5, 20% glycerol, 50 mM sodium chloride (NaCl), 0.01% Surfact-Amps® 20, 1 μM peptide stubstrate (Biotin-GLYRSPSMPEN-amide) (SEQ ID NO: 3), 01.% BSA, 2 mM DTT, 4% DMSO, 600 μM ATP, 10 MM MgCl2 and reacted for 50 minutes at room temperature. Reactions were terminated with 100 μL of Stop buffer containing 1% BSA, 10 mM Tris, pH 8.0, 150 mM NaCl, 100 mM EDTA. Stopped reactions (100 μL) were transferred to 96 well NeutrAvidin plates (Pierce) to capture the biotin-peptide substrate during a 30 minute room temperature incubation. Wells were washed and reacted with 100 μL PerkinElmer Wallac Assay Buffer containing 21.5 ng/ml anti-phospho-Ser216-Cdc25c rabbit polyclonal antibody from Cell Signaling Technology (Beverly, Mass.) and 292 ng/ml europium labeled anti-rabbit-IgG for 1 hour at room temperature. Wells were washed and europium released from the bound antibody by addition of Enhancement Solution (100 μL) (PerkinElmer Wallac) and detected using a Perkin Elmer Wallac Envison™ 2100 multilabel reader using standard manufacturer settings.

SMILES | IC50 [nM]
Cc1[nH]nc2c1c(=O)n(C[C@H](C)CN)c1ccc(F)cc21 (stereo in doubt) [Compound 202, 5-(3-Amino-2-methyl-propyl)-8-fluoro-3-methyl-2,5-dihydro-pyrazolo[4,3-c]quinolin-4-one] | < 1000
Cc1[nH]nc2c1c(=O)n(CCCN)c1ccc(F)cc21 [Compound 203, 5-(3-Amino-propyl)-8-fluoro-3-methyl-2,5-dihydro-pyrazolo[4,3-c]quinolin-4-one] | < 1000
COCCc1[nH]nc2c1c(=O)n(CCCN)c1ccc(F)cc21 [Compound 205, 5-(3-Amino-propyl)-8-fluoro-3-(2-methoxy-ethyl)-2,5-dihydro-pyrazolo[4,3-c]quinolin-4-one] | < 1000
COCCc1[nH]nc2c1c(=O)n(CCCN)c1ccc(Cl)cc21 [Compound 206, 5-(3-Amino-propyl)-8-chloro-3-(2-methoxyethyl)-2,5-dihydro-pyrazolo[4,3-c]quinolin-4-one] | < 1000
Cc1[nH]nc2c1c(=O)n(CCCN)c1ccc(I)cc21 [Compound 208, 5-(3-Amino-propyl)-8-iodo-3-methyl-2,5-dihydro-pyrazolo[4,3-c]quinolin-4-one] | < 1000
Cc1[nH]nc2c1c(=O)n(CCCO)c1ccc(Cl)cc21 [Compound 209, 8-Chloro-5-(3-hydroxy-propyl)-3-methyl-2,5-dihydro-pyrazolo[4,3-c]quinolin-4-one] | < 1000
Cc1[nH]nc2c1c(=O)n(CC[C@H]1CCCCN1)c1ccc(Cl)cc21 [Compound 213, 8-Chloro-3-methyl-5-(2R-piperidin-2-yl-ethyl)-2,5-dihydro-pyrazolo[4,3-c]quinolin-4-one] | < 1000
Cc1[nH]nc2c1c(=O)n(CCC(C)N)c1ccc(Cl)cc21 (stereo not shown) [Compound 216, 5-(3-Amino-butyl)-8-chloro 3-methyl-2,5-dihydro-pyrazolo[4,3-c]quinolin-4-one] | < 1000
Cc1[nH]nc2c1c(=O)n(CCC(O)Cn1ccnc1)c1ccc(Cl)cc21 (stereo not shown) [Compound 252, 8-Chloro-5-(3-hydroxy-4-imidazol-1-yl-butyl)-3-methyl-2,5-dihydro-pyrazolo[4,3-c]quinolin-4-one] | < 1000
Cc1[nH]nc2c1c(=O)n(CCCNC(=N)N)c1ccc(Cl)cc21 [Compound 253, N-[3-(8-Chloro-3-methyl-4-oxo-2,4-dihydro-pyrazolo[4,3-c]quinolin-5-yl)-propyl]-guanidine] | < 1000
Cc1[nH]nc2c1c(=O)n(CCCN)c1ccc(C(=O)O)cc21 [Compound 266, 5-(3-Amino-propyl)-3-methyl-4-oxo-4,5-dihydro-2H-pyrazolo[4,3-c]quinoline-8-carboxylic acid] | 1000 to 10000
COC(=O)/C=C/c1ccc2c(c1)c1n[nH]c(C)c1c(=O)n2CCCN [Compound 267, 3-[5-(3-Amino-propyl)-3-methyl-4-oxo-4,5-dihydro-2H-pyrazolo[4,3-c]quinolin-8-yl]-acrylic acid methyl ester] | < 1000
COC(=O)CCc1ccc2c(c1)c1n[nH]c(C)c1c(=O)n2CCCN [Compound 268, 3-[5-(3-Amino-propyl)-3-methyl-4-oxo-4,5-dihydro-2H-pyrazolo[4,3-c]quinolin-8-yl]-propionic acid methyl ester] | < 1000
Cc1[nH]nc2c1c(=O)n(CCCN)c1ccc(CCC(=O)O)cc21 [Compound 269, 3-[5-(3-Aminopropyl)-3-methyl-4-oxo-4,5-dihydro-2H-pyrazolo[4,3-c]quinolin-8-yl]-propionic acid] | 1000 to 10000
NCCCn1c(=O)c2c(CCO)[nH]nc2c2cc(Cl)ccc21 [Compound 316, 5-(3-Amino-propyl)-8-chloro-3-(2-hydroxy-ethyl)-2,5-dihydro-pyrazolo[4,3-c]quinolin-4-one] | < 1000
COC(C)Cc1[nH]nc2c1c(=O)n(CCCN)c1ccc(Cl)cc21 (stereo not shown) [Compound 324, 5-(3-Amino-propyl)-8-chloro-3-(2-methoxy-propyl)-2,5-dihydro-pyrazolo[4,3-c]quinolin-4-one] | 1000 to 10000
CC(C)c1[nH]nc2c1c(=O)n(CCCN)c1ccc(Cl)cc21 [Compound 325, 5-(3-Amino-propyl)-8-chloro-3-isopropyl-2,5-dihydro-pyrazolo[4,3-c]quinolin-4-one] | < 1000

SMILES | IC50 [nM]
COC(=O)c1ccc2c3n[nH]c(C)c3c(=O)n(CCCN)c2c1 [Compound 334, 5-(3-Amino-propyl)-3-methyl-4-oxo-4,5-dihydro-2H-pyrazolo[4,3-c]quinoline-7-carboxylic acid methyl ester] | 1000 to 10000
Cc1[nH]nc2c1c(=O)n(C)c1c(CCCN)cc(Cl)cc21 [Compound 343, 6-(3-Amino-propyl)-8-chloro-3,5-dimethyl-2,5-dihydro-pyrazolo[4,3-c]quinolin-4-one] | 1000 to 10000
Cc1[nH]nc2c1c(=O)n(C)c1c(C#CCO)cc(Cl)cc21 [Compound 344, 8-Chloro-6-(3-hydroxy-prop-1-ynyl)-3,5-dimethyl-2,5-dihydro-pyrazolo[4,3-c]quinolin-4-one] | 1000 to 10000
Cc1[nH]nc2c1c(=O)n(C)c1c(C#CCCN)cc(Cl)cc21 [Compound 345, 6-(4-amino-but-1-ynyl)-8-chloro-3,5-dimethyl-2,5-dihydro-pyrazolo[4,3-c]quinolin-4-one] | < 1000
Cc1[nH]nc2c1c(=O)n(CCCN)c1c([N+](=O)[O-])cc(Cl)cc21 [Compound 347, 5-(3-Amino-propyl)-8-chloro-3-methyl-6-nitro-2,5-dihydro-pyrazolo[4,3-c]quinolin-4-one] | 1000 to 10000
Cc1[nH]nc2c1c(=O)n(CCCN)c1c(N)cc(Cl)cc21 [Compound 348, 6-Amino-5-(3-amino-propyl)-8-chloro-3-methyl-2,5-dihydro-pyrazolo[4,3-c]quinolin4-one] | < 1000
Cc1[nH]nc2c1c(=O)n(CCCN)c1c(Br)cc(Cl)cc21 [Compound 349, 5-(3-Amino-propyl)-6-bromo-8-chloro-3-methyl 2,5-dihydro-pyrazolo[4,3-c]quinolin-4-one] | < 1000
Cc1[nH]nc2c1c(=O)n(CCCN)c1ccc(NC(=O)CCN)cc21 [Compound 357, 3-Amino-N-[5-(3-amino-propyl)-3-methyl-4-oxo-4,5-dihydro-2H-pyrazolo[4,3-c]quinolin-8-yl]-propionamide] | < 1000
Cc1[nH]nc2c1c(=O)n(CCCN)c1ccc(-c3ccncc3)cc21 [Compound 358, 5-(3-Amino-propyl)-3-methyl-8-pyridin-4-yl-2,5-dihydro-pyrazolo[4,3-c]quinolin-4-one] | < 1000
C#Cc1ccc2c(c1)c1n[nH]c(CC)c1c(=O)n2CCCN [Compound 360, 5-(3-Amino-propyl)-3-ethyl-8-ethynyl-2,5-dihydro-pyrazolo[4,3-c]quinolin-4-one] | < 1000
Cc1[nH]nc2c1c(=O)n(CC[C@@H](C)N)c1ccc(Cl)cc21 [Example 217, 5-(3R-Amino-butyl)-8-chloro 3-methyl-2,5-dihydro-pyrazolo[4,3-c]quinolin-4-one] | < 1000
COCCc1[nH]nc2c1c(=O)n(CCC(C)N)c1ccc(Cl)cc21 (stereo not shown) [Example 219] | < 1000
Cc1[nH]nc2c1c(=O)n(C[C@@H](C)CN)c1ccc(Cl)cc21 [Example 220, 5-(3-Amino-2S-methyl-propyl)-8-chloro-3-methyl-2,5-dihydro-pyrazolo[4,3-c]quinolin-4-one] | < 1000
Cc1[nH]nc2c1c(=O)n(C[C@H](C)CN)c1ccc(Cl)cc21 [Example 221, 5-(3-Amino-2R-methyl-propyl)-8-chloro-3-methyl-2,5-dihydro-pyrazolo[4,3-c]quinolin-4-one] | < 1000
COCCc1[nH]nc2c1c(=O)n(C[C@@H](C)CN)c1ccc(Cl)cc21 [Example 222, 5-(3-Amino-2S-methyl-propyl)-8-chloro-3-(2-methoxy-ethyl)-2,5-dihydro-pyrazolo[4,3-c]quinolin-4-one] | < 1000
COCCc1[nH]nc2c1c(=O)n(C[C@H](C)CN)c1ccc(Cl)cc21 [Example 223, 5-(3-Amino-2R-methyl-propyl)-8-chloro-3-(2-methoxy-ethyl)-2,5-dihydro-pyrazolo[4,3-c]quinolin-4-one] | < 1000
Cc1[nH]nc2c1c(=O)n(C[C@@H]1CCCNC1)c1ccc(Cl)cc21 [Example 224, 8-Chloro-3-methyl-5R-piperidin-3-ylmethyl-2,5-dihydro-pyrazolo[4,3-c]quinolin-4-one] | < 1000

— US20050245563A1 (Millennium Pharmaceuticals, Inc., priority 2003, published 2005)
